We go through 1 compound from ChEMBL document CHEMBL1806468, “A facile synthesis of 1,5-disubstituted-2-aminoimidazoles: antibiotic activity of a first generation library” (2011).

The test system of experiment [1] is Escherichia coli. Nature of the experiment: Inhibition of Escherichia coli ATCC 35695 biofilm formation after 24 hrs by crystal violet reporter assay. Type of experiment: functional.
In experiment [2] the test system is Staphylococcus aureus. Nature of the experiment: Inhibition of Staphylococcus aureus BAA-44 biofilm formation after 24 hrs by crystal violet reporter assay. Type of experiment: functional.
Experiment [3] has as its system Acinetobacter baumannii. Put plainly: Antimicrobial activity against Acinetobacter baumannii ATCC 19606 after 16 hrs by broth microdilution method. The conditions noted are these: ATCC 19606 = CIP 70.34 = JCM 6841, 16 h. Type of experiment: functional.
Experiment [4] deals with Staphylococcus epidermidis. Put plainly: Antimicrobial activity against Staphylococcus epidermidis ATCC 29886 after 16 hrs by broth microdilution method. The conditions noted are these: ATCC 29886, 16 h. Type of experiment: functional.
Experiment [5] relates to Acinetobacter baumannii. Nature of the experiment: Inhibition of Acinetobacter baumannii BAA-1605 biofilm formation after 24 hrs by crystal violet reporter assay. Type of experiment: functional.
The test system of experiment [6] is Acinetobacter baumannii. Nature of the experiment: Inhibition of Acinetobacter baumannii ATCC 19606 biofilm formation after 24 hrs by crystal violet reporter assay. Type of experiment: functional, ATCC 19606 = CIP 70.34 = JCM 6841.
The subject of a further experiment is Klebsiella pneumoniae. Put plainly: Antimicrobial activity against carbapenem-resistant Klebsiella pneumoniae BAA-2146 expressing […] gene after 16 hrs by broth microdilution method. Type of experiment: functional. Conditions: BAA-2146, 16 h.
The test system of experiment [7] is Escherichia coli. Put plainly: Antimicrobial activity against Escherichia coli ATCC 35695 after 16 hrs by broth microdilution method. Type of experiment: functional. Conditions: ATCC 35695, 16 h.
Experiment [8] has as its system Staphylococcus epidermidis. Nature of the experiment: Antimicrobial activity against methicillin-resistant Staphylococcus epidermidis ATCC 51625 after 16 hrs by broth microdilution method. Type of experiment: functional. The conditions noted are these: ATCC 51625, 16 h.
Experiment [9] relates to Acinetobacter baumannii. Put plainly: Antimicrobial activity against multidrug-resistant Acinetobacter baumannii BAA-1605 after 16 hrs by broth microdilution method. Type of experiment: functional. Conditions: BAA-1605, 16 h.
The test system of experiment [10] is Staphylococcus aureus. Put plainly: Inhibition of Staphylococcus aureus ATCC 29213 biofilm formation after 24 hrs by crystal violet reporter assay. Type of experiment: functional.
The subject of experiment [11] is Staphylococcus aureus. Nature of the experiment: Antimicrobial activity against methicillin-resistant Staphylococcus aureus BAA-44 after 16 hrs by broth microdilution method. Type of experiment: functional. Conditions: BAA-44, 16 h.
Experiment [12] concerns Staphylococcus aureus. Nature of the experiment: Antimicrobial activity against methicillin-susceptible Staphylococcus aureus ATCC 29213 after 16 hrs by broth microdilution method. Conditions: ATCC 29213, 16 h. Type of experiment: functional.

The structures appear in SMILES notation.

Take `Cl.Nc1ncc(-c2ccccc2)n1Cc1ccccc1`: the “inhibition (INH)” value in the experiment on Escherichia coli [1] worked out at 89%; in the experiment with Staphylococcus aureus [2], 95%; in the experiment with Acinetobacter baumannii [5], 97%; in the experiment on Acinetobacter baumannii [6], 96%; with Staphylococcus aureus [10], 93%. The MIC amounted to 128 µg/mL with Acinetobacter baumannii [3]; 2 µg/mL in [4]; 128 µg/mL in the experiment with Klebsiella pneumoniae; 8 µg/mL with Escherichia coli [7]; 8 µg/mL in experiment [8]; 16 µg/mL in the experiment on Acinetobacter baumannii [9]. Besides, the results for the minimum inhibitory concentration (MIC) against Staphylococcus aureus [11] and in the experiment with Staphylococcus aureus [12] were 4 µg/mL and 8 µg/mL, respectively.
